# From article PMC12540922, “Selective Antimicrobial and Cytotoxic Effects of Hop Compounds to Combat Poultry Antimicrobial Resistance” (MicrobiologyOpen, 2025)
# “Also recorded” adds a separate entry of the source. Counter-ions that a name gives are not always drawn.
# Key:
# M. luteus = system: M. luteus; parameters: method as in Seniya et al. [2012]; conditions: against M. luteus; ref Seniya et al. [2012]; cited from earlier work
# [1] = system: Micrococcus luteus (DSM 1605); experiment: Broth dilution assay, antibacterial activity; format: cell-based; conditions: for MIC50: Micrococcus luteus, DSM1605, M. luteus, concentration inhibiting 50% of growth rate, NB medium, 37°C, 24 h, mean ± SD
# Protocol: Micrococcus luteus (DSM 1605) was obtained from DSMZ (German Collection of Microorganisms and Cell Cultures GmbH). It was cultured on nutrient agar or in nutrient broth (NB, DSMZ #1) containing 5 g L^−1 peptone from casein (Carl Roth, Karlsruhe, Germany) and 3 g L^−1 meat extract (Carl Roth, Karlsruhe, Germany) under aerobic conditions at 37°C.
# (§1) Antibacterial activity of hop compounds against Gram‐positive M. luteus and B. subtilis was analyzed using Broth Dilution Assay. Twofold dilutions of hop compounds were prepared in NB or TSB medium, ranging from theoretical concentrations of 500 to 0.5 µg mL^−1 and transferred to 48‐well microtiter plates (Sarstedt, Nuembrecht, Germany). Gentamicin sulfate was used as a positive control. The optical density (OD) of a preculture prepared on the previous day was measured at 600 nm in a spectrophotometer (Implen, Muenchen, Germany). The inoculum was then diluted with NB or TSB medium to the desired OD600 nm of 0.1 and transferred to all wells (150 µL) except the sterile control, which consists only of medium. The ODs of the cultures were measured every hour at 750 nm using a plate reader (Tecan, Maennedorf, Switzerland) for 24 h. In the meantime, the plates were incubated at 37°C or 28°C without shaking. The chosen wavelength of 750 nm resulted from previous experiments with hop extracts to avoid an overlap of the absorption spectrum with chlorophyll (Guidi et al. [2017]). The growth rates were obtained from the exponential range of the generated growth curves. All values were normalized to the growth control (without hop compounds). MIC50 (minimum concentration of a substance that inhibits the growth of 50% of the bacteria tested) values were calculated by nonlinear regression using GraphPad Prism model “log(inhibitor) versus response,” where the basal response was subtracted and the bottom was set to a constant value (0). Means and standard deviations (SDs) were calculated from two biological duplicates, each consisting of three technical replicates.
# [2] = system: Bacillus subtilis (DSM 23778); experiment: Broth dilution assay, antibacterial activity; format: cell-based; conditions: for MIC50: Bacillus subtilis, DSM23778, B. subtilis, concentration inhibiting 50% of growth rate, TSB medium, 28°C, 24 h, mean ± SD; for Selectivity index (SI), quotient of IC50 and MIC50: IC50 UMNSAH/DF-1 / MIC50 B. subtilis
# Protocol: Bacillus subtilis (DSM 23778) was obtained from DSMZ (German Collection of Microorganisms and Cell Cultures GmbH). It was cultured on tryptic soy broth (TSB, DSMZ #545) agar plates or in TSB containing 17 g L^−1 peptone from casein, 3 g L^−1 peptone from soy, 2.5 g L^−1 D‐(+)‐glucose, 5 g L^−1 NaCl, and 2.5 g L^−1 K2HPO4 (Carl Roth, Karlsruhe, Germany) under aerobic conditions at 28°C.
# as §1
# [3] = MTT based cell viability assay (cytotoxic activity); conditions: chicken, UMNSAH/DF-1 chicken fibroblast cells, UMNSAH/DF-1, 48 h treatment, mean ± SD
# Protocol: UMNSAH/DF‐1 cell line was purchased from Cytion (Eppelheim, Germany). The cells were maintained in Dulbecco's Modified Eagle Medium (DMEM, Sigma‐Aldrich, St. Louis, USA) containing 10% heat‐inactivated fetal bovine serum (FBS, Sigma‐Aldrich, St. Louis, USA) and cultured at 37°C and 5% CO2 in a humidified atmosphere. Cell lines were serially passaged after being detached with Accutase solution (Sigma‐Aldrich, St. Louis, USA).
# The hop compounds were investigated for their cytotoxic effect on the chicken cell line UMNSAH/DF‐1, using the 3‐(4,5‐dimehtylthiazol‐2‐yl)‐2,5‐diphenyltetrazolium bromide (MTT) based cell viability assay. Cells were seeded in 96‐well microtiter plates (Sarstedt, Nümbrecht, Germany) with a cell density of 0.05 × 10^6 cells per mL and 100 µL per well and incubated for 24 h (37°C, 5% CO2). After that the medium was discarded and a dilution series of hop compounds in DMEM was added to the wells (100 µL), ranging from theoretical concentrations of 200 µg mL^−1 to 20 ng mL^−1. For vitality control, 20% dimethyl sulfoxide (DMSO) (TH Geyer, Renningen, Germany) was added, and for growth control, culture medium was added. The cytotoxic measurements were also performed with gentamicin sulfate as a control. Treated cells were further incubated for 48 h (37°C, 5% CO2). […] Means and SDs were calculated from two biological duplicates, each consisting of three technical replicates.
# [4] = system: human prostate (PC3) and colon (HT29) cancer cell lines; parameters: method as in Farag and Wessjohann [2013]; conditions: ref Farag and Wessjohann [2013]; cited from earlier work
# [5] = Solubility of hop compounds in aqueous media (HPLC of supernatant); format: physicochemical; conditions: 10% (v/v) ethanol; for Solubility in aqueous medium (in words): DMEM with/without 10% FBS, NB, TSB, theoretical 1 mg mL^−1; for solubility: culture media DMEM, NB and TSB, aqueous with cosolvent or surfactant or cyclodextrin, kinetic from dmso stock, in the media selected (DMEM, NB, TSB), read-out: Solubility limit
# Protocol: High‐performance liquid chromatography (HPLC) measurements were performed using an NUCLEODUR C18 Gravity‐SB (3 µm, 250 × 2 mm) column equipped with a precolumn (Machery Nagel, Düren, Germany) in a Shimadzu HPLC system (Kyoto, Japan). The flow rate was set to 0.6 mL min^−1 at 40°C using 80% methanol/20% phosphoric acid (0.5% [v/v] in H2O) as mobile phase. Media samples were 10‐fold diluted in the mobile phase, incubated for 10 min at 40°C and centrifuged at 10,000g for 10 min. 10 μL of filtered (polytetrafluoroethylene, 0.2 µm) samples was injected for analysis. Identification and quantification of isoxanthohumol, xanthohumol, co‐/n‐/adhumulone, co‐/n‐/adlupulone, and co‐/n‐/adisohumulone by a UV‐Detector (314 nm for 0–24 min, and 270 nm for 24.01–45 min) were performed by corresponding standard curves. The preparation of hop compound solutions was carried out analogously for all three media NB, TSB, and DMEM for use in bacterial and avian cell culture. Hop compounds were provided by Hopsteiner (Mainburg, Germany) in the following purities: isoxanthohumol (81.0%), xanthohumol (90.0%), humulone (88.5%), lupulone (74.3%), and isohumulone (91.0%). The hop compounds were dissolved in ethanol to 10 mg mL^−1. From this stock solution, 1:10 dilutions were prepared in the respective medium, resulting in precipitation due to their hydrophobic character. After centrifugation (10,000g, 10 min), the clear supernatant was transferred to a new tube and used for further experiments. […] This is why the actual concentration of the compounds in the aqueous medium was analyzed using HPLC and used for subsequent calculations. Due to the hydrophobic character of hop pure compounds, a complete dissolution in an aqueous medium cannot be assumed. […] To assess the influence of FBS on solubility, DMEM without serum was also tested. For humulone, lupulone, and isohumulone, the three derivatives (co‐/n‐/ad‐) are considered together in this figure and also in the following.
# [6] = system: A-2780 ovarian cancer cell line; parameters: method as in Miranda et al. [1999]; conditions: ref Miranda et al. [1999], cited from earlier work
# [7] = system: MCF-7 breast cancer cell line; parameters: method as in Miranda et al. [1999]; conditions: ref Miranda et al. [1999], cited from earlier work
# [8] = system: normal human fibroblasts (BJ cells); parameters: method as in Klimek et al. ([2021]); conditions: ref Klimek et al. ([2021]); cited from earlier work
# [9] = system: normal murine hepatocytes (AML 12 cell line); parameters: method as in Ho et al. [2008]; conditions: ref Ho et al. [2008]; cited from earlier work
# [10] = read-out: IC50 (antiproliferative effect)
smiles,measurement,setting,value
CC1(C)S[C@@H]2[C@H](NC(=O)[C@H](N)c3ccccc3)C(=O)N2[C@H]1C(=O)O [ampicillin],MIC90,M. luteus,2500 µg/mL
CO/N=C(\C(=O)N[C@@H]1C(=O)N2C(C(=O)O)=C(CSc3nc(=O)c(=O)[nH]n3C)CS[C@H]12)c1csc(N)n1 [ceftriaxone],MIC90,M. luteus,500 µg/mL
"CNC(C)C1CCC(N)C(OC2C(N)CC(N)C(OC3OCC(C)(O)C(NC)C3O)C2O)O1 (stereo not drawn) [gentamicin sulfate, reference compound]",MIC50,[1],0.26 ± 0.08 µg/mL
same,MIC50,[2],0.73 ± 0.2 µg/mL
same,IC50 at 48 h,[3],1440 ± 390 µg/mL
CC(C)=CCC1C(=O)C(C(=O)CC(C)C)=C(O)C(O)(CC=C(C)C)C1=O (stereo not drawn) [humulone],"Selectivity index (SI), quotient of IC50 and MIC50",[2],around 6
same,IC50,[4],13.2 to 15.5 µg/mL
same,Solubility in aqueous medium (in words),[5],highest
same,solubility,[5],~1000 µg/mL
COc1cc(O)c(CC=C(C)C)c2c1C(=O)CC(c1ccc(O)cc1)O2 (stereo not drawn) [isoxanthohumol],Times less effective than xanthohumol,[6],35 times
same,Effect compared with xanthohumol (in words),[7],comparable effect
same,Solubility in aqueous medium (in words),[5],minimal; also recorded: moderately dissolved; also recorded: limited solubility
CC(C)=CCC1=C(O)C(C(=O)CC(C)C)=C(O)C(CC=C(C)C)(CC=C(C)C)C1=O [lupulone],MIC50,[1],1.5 ± 0.48 µg/mL
same,MIC50,[2],0.1 ± 0.0029 µg/mL
same,IC50,[4],2.4 to 8.1 µg/mL
same,IC50 at 48 h,[3],1.5 ± 0.034 µg/mL
same,solubility,[5],~1000 µg/mL
[H]/N=C(/N)N[C@H]1[C@H](O)[C@@H](O)[C@H](O[C@@H]2O[C@@H](C)[C@](O)(C=O)[C@H]2O[C@@H]2O[C@@H](CO)[C@H](O)[C@@H](O)[C@@H]2NC)[C@@H](N/C(N)=N\[H])[C@@H]1O [streptomycin],MIC90,M. luteus,500 µg/mL
COc1cc(O)c(CC=C(C)C)c(O)c1C(=O)/C=C/c1ccc(O)cc1 [xanthohumol],"Selectivity index (SI), quotient of IC50 and MIC50",[1]; IC50 UMNSAH/DF-1 / MIC50 M. luteus,5.5 ± 0.36
same,MIC50,[1],0.95 ± 0.04 µg/mL
same,IC50,[6]; [10],0.52 µM
same,IC50,[7]; [10],13.3 µM
same,"Selectivity index (SI), quotient of IC50 and MIC50",[2],around 6
same,IC50,[8],26.56 µg/mL
same,Solubility in aqueous medium (in words),[5],minimal; also recorded: only a small proportion of xanthohumol could be recovered
same,Solubility in aqueous medium (in words),[5]; listed as Xanthohumol,limited solubility
same,IC50,[9],211 µM
